Key:
[1] = Plasma pharmacokinetics of Posiphen and its N1 and N8 metabolites (LC-MS, non-compartmental); format: in vivo, human; conditions: for Tmax: median (min-max); for AUC(0-t) / Cmax: 60 mg; for AUC(0-t): read-out: AUC0 − 24; for Cmax: read-out: Cmax; for mean levels averaged over 24 h of CSF sampling: after 21–23 days, early AD
Description: (§1) For the confinement visit, subjects arrived in the early morning after an overnight fast. Physical and neurological examination, vital signs, and assessment of compliance were completed and blood was drawn for safety laboratory tests. An intravenous line and a second line for repeated blood draw were placed. To sample CSF, the intrathecal space was accessed using a Perifix 18G Touhy Epidural Needle (90 mm), and a Polyamide Epidural Catheter (20G Closed Tip) was inserted and fixed in place by an Anesthesiologist. Participants received the last day’s dosing of study drug or placebo. Initial blood and CSF samples were drawn, intravenous infusion of ^13C6-leucine was started and continued for 9 h, during which time subjects received a low leucine diet. Blood and CSF were sampled every 2 h for 36 h. After 36 h, intravenous lines and the CSF catheter were removed, vital signs were measured, physical exam performed, and blood and CSF were sent for routine laboratory studies. […] If postural headache was present, a blood patch was performed. Once stable, participants underwent a brief exam and vital sign check and were discharged. They received a phone call 24 h after discharge to check on their wellbeing.
(§2) For biochemical analysis to derive data for SILK, ^13C6-leucine was analyzed in plasma and CSF by mass spectrometry, and Aβ peptides in CSF were analyzed by immunoprecipitation-mass spectrometry (IP-MS) as previously described, by C2N Diagnostics (St Louis, MO). CSF levels of sAPPα, sAPPβ, Aβ38, 40 and 42 were analyzed by the ADCS Biomarker Core using Mesoscale Discovery (MSD) electrochemiluminescent assays (Mesoscale Discovery, Rockville, MD). Levels of Posiphen and its N1 and N8 metabolites in plasma and CSF were measured by Charles River Laboratories (Montreal, CA) by high-performance liquid chromatographic mass spectrometry, with use of deuterated Posiphen (procured by Charles River Laboratories) as an internal standard.
(§3) A prespecified Statistical Analysis Plan (SAP) was prepared and finalized before the database lock occurred. For safety and tolerability, frequencies of adverse events, serious adverse events and laboratory abnormalities between the participants across the three groups are compared, using Pearson’s χ [2] or ANOVA, as appropriate. Plasma concentration-time data are analyzed by non-compartmental methods using WinNonlin version 6.2.1 or greater. Calculations are based on the actual sampling times recorded during the study. For PK analysis, only the subjects receiving Posiphen are included.
(§4) Noncompartmental pharmacokinetic parameters were estimated using Phoenix WinNonlin v8.3 (Certara, Princeton, NJ). Levels and parameters (Cmax, AUC) of posiphen, n-1 and n-8 metabolites were highly correlated in plasma and CSF. For the BID and TID doses the expected post dose plasma peaks appeared attenuated.

[2] = CSF pharmacokinetics of Posiphen and its N1 and N8 metabolites (lumbar catheter sampling, LC-MS); format: in vivo, human; conditions: for mean levels averaged over 24 h of CSF sampling: after 21–23 days, early AD; for Tmax: median (min-max); for AUC(0-t) / Cmax: 60 mg; for AUC(0-t): read-out: AUC0 − 24; for Cmax: read-out: Cmax
Description: as §1, §2, §3, §4

[3] = Cognitive and behavioral outcomes (ADAS-cog12, MMSE, NPI); format: in vivo, human
Description: The screening visit included history, examination, review of medical records and medications, vital signs, physical and neurological examination, cognitive testing with the MMSE and Logical Memory test (Wechsler Memory Scale-revised), EKG, blood draw for routine laboratory tests, lumbar puncture and if needed, brain MRI. If eligible, participants underwent a baseline visit, with cognitive assessment using the MMSE and ADAS-cog12, behavioral assessments, Research Satisfaction Survey, safety assessments, and review of concurrent medications and adverse events, and they received a supply of the study drug (or placebo), which they started the day after the baseline visit. A telephone assessment was done at day 14 after baseline, to assess adverse events, concomitant medication changes and remind participants/study partners about the confinement visit. A pre-confinement visit took place 1–3 days before the confinement visit, following treatment for 20 days, and included physical and neurological examination, cognitive and behavioral assessments (see below), safety assessments (including clinical safety labs), and a review of compliance, concurrent medications and adverse events. The study drug or placebo was continued until the day before the confinement visit.
(§5) Safety measures included adverse events, vital signs, EKG and laboratory tests. The Mini-Mental State Examination (MMSE), Alzheimer’s Disease Assessment Scale-cognitive (ADAS-cog12) and Neuropsychiatric Inventory (NPI) were used as cognitive and behavioral outcomes,.
Changes in CSF biomarkers from the screening to confinement (sample at time of placement of catheter) were compared in the treatment and placebo groups by ANOVA, with models that included age, sex and baseline MMSE, and further analysis stratified by treatment dose. A similar approach was taken to analyze changes in MMSE, ADAS-cog and NPI. Data were analyzed using R (version 4.2.2).

[4] = Safety and tolerability (adverse events, vital signs, EKG, laboratory tests); format: in vivo, human
Protocol: as §5, §3

[5] = set-up: method as in PMID 22791904; conditions: cited from earlier work
[6] = human, plasma, oral, plasma, 60 mg BID (n = 5), geometric mean (% geometric CV)
[7] = human, plasma, oral, plasma, 60 mg TID (n = 1)
[8] = human, plasma, oral, plasma, 60 mg daily (n = 4), geometric mean (% geometric CV)
[9] = plasma, 60 mg daily (n = 4), geometric mean (% geometric CV)
[10] = human, oral, 60 mg BID (n = 5), geometric mean (% geometric CV)
[11] = human, oral, 60 mg daily (n = 4; N1: only one participant measurable), geometric mean (% geometric CV)

With `CN1CC[C@]2(C)c3cc(OC(=O)Nc4ccccc4)ccc3N(C)[C@H]12` [Posiphen] the “plasma exposure with more frequent dosing” value ([1]; 60 mg once, twice, three times daily) was “did not increase proportionally”, the half-life ([1]; human, oral, plasma, 60 mg daily (n = 4), geometric mean (% geometric CV)) was 3.55 h and the Tmax ([1]; human, oral, plasma, 60 mg daily (n = 4), read-out: Tmax) was 2 h. For the same molecule, the AUC(0-t) [1, 6] was 196 ng·h/mL, the Cmax [1, 6] was 30.4 ng/mL and the AUC(0-t) [1, 7] was 288 ng·h/mL. The Cmax [1, 7] was 51.8 ng/mL, the AUC(0-t) [1, 8] was 212 ng·h/mL and the Cmax [1, 8] was 52.7 ng/mL. The “mean levels averaged over 24 h of CSF sampling” value (“mean levels averaged over 24 h” for short) ([1]; plasma, 60 mg BID (n = 5)) was 9.51 ± 5.77 ng/mL, the Tmax ([1]; plasma, 60 mg BID (n = 5)) was 2 (2–12) hr and the “mean levels averaged over 24 h” value ([1]; plasma, 60 mg TID (n = 1)) was 12.01 ng/mL. For the same molecule, the Cl/F [1, 9] was 274.04 (17.50) L/hr, the V/F [1, 9] was 1403.1 (59.23) L and the “mean levels averaged over 24 h” value ([1]; plasma, 60 mg once daily (n = 5)) was 7.16 ± 4.25 ng/mL. The “mean levels averaged over 24 h” value ([2]; 60 mg (n = 5)) was 0.46 ± 0.30 ng/mL, the “mean levels averaged over 24 h” value ([2]; 60 mg BID (n = 5)) was 0.73 ± 0.53 ng/mL and the Tmax ([2]; 60 mg BID (n = 5)) was 2 (2–20) hr. For the same molecule, the “mean levels averaged over 24 h” value ([2]; 60 mg TID (n = 1)) was 0.71 ng/mL, the Tmax ([2]; human, oral, 60 mg daily (n = 4; N1: only one participant measurable), read-out: Tmax) was 2 h and the AUC(0-t) [2, 10] was 17.9 ng·h/mL. For the same molecule, the Cmax [2, 10] was 2.21 ng/mL, the AUC(0-t) ([2]; human, oral, 60 mg TID (n = 1)) was 25 ng·h/mL and the Cmax ([2]; human, oral, 60 mg TID (n = 1)) was 2.44 ng/mL. For the same molecule, the AUC(0-t) [2, 11] was 12.3 ng·h/mL, the Cmax [2, 11] was 2.85 ng/mL and the “NPI, mean change from baseline to pre-confinement” value ([3]; Posiphen (n = 11), mITT, baseline 8.36 ± 9.52) was -0.45 ± 7.01. For the same molecule, the “MMSE, Pre-confinement” value ([3]; Posiphen (n = 11), mITT, baseline 24.36 ± 2.8) was 24.18 ± 2.52, the “ADAS-Cog12, Pre-confinement” value ([3]; Posiphen (n = 11), mITT, baseline 25.73 ± 8.76) was 25.18 ± 5.33 and the “ADAS-cog, MMSE or NPI total scores, change from baseline to pre-confinement visit” value ([3]; Posiphen or placebo groups) was “no significant changes”. The “MMSE, Mean change” value ([3]; baseline to pre-confinement, Posiphen (n = 11), placebo 1.14 ± 2.12) was -0.18 ± 2.09, the “ADAS-Cog12, Mean change” value ([3]; baseline to pre-confinement, Posiphen (n = 11), placebo -1.57 ± 5.19) was -0.55 ± 6.04 and the “ADAS-cog change, t” value ([3]; contrast 60 mg – placebo, multiple linear regression (age, sex, APOE genotype, baseline score, arm), p 0.68) was 0.42. For the same molecule, the “MMSE change, t” value ([3]; contrast 60 mg – placebo, multiple linear regression, p 0.006) was -3.32, the “NPI change, t” value ([3]; contrast 60 mg – placebo, multiple linear regression, p 0.51) was 0.68 and the “NPI change, t” value ([3]; contrast 120 mg - placebo, multiple linear regression, p 0.02) was 2.73. For the same molecule, the “MMSE change, t” value ([3]; contrast 120 mg - placebo, multiple linear regression, p 0.24) was 1.2, the “ADAS-cog change, t” value ([3]; contrast 120 mg - placebo, multiple linear regression, p 0.30) was 1.1 and the “ADAS-cog change, t” value ([3]; contrast 180 mg - placebo, multiple linear regression, p 0.77) was 029. For the same molecule, the “NPI change, t” value ([3]; contrast 180 mg - placebo, multiple linear regression, p 0.91) was 0.12, the “NPI, Treatment difference (Posiphen – placebo)” value ([3]; mITT, p = 0.11) was 7.10 ± 4.07 p = 0.11 and the “ADAS-Cog12, Treatment difference (Posiphen – placebo)” value ([3]; mITT, p = 0.32) was 3.00 ± 2.94 p = 0.32. The “MMSE, Treatment difference (Posiphen – placebo)” value ([3]; mITT, p= 0.23) was -1.6 ± 1.28 p= 0.23, the ECG parameters ([4]; Posiphen vs placebo groups) was “no significant changes or differences” and the laboratory safety parameters ([4]; Posiphen vs placebo groups) was “no clinically significant changes”. For the same molecule, the safety and tolerability ([4]; early AD, 60 mg once, twice or three times per day for 21–23 days, 11 received Posiphen, 7 placebo) was “safe and was generally well tolerated”, the “adverse events (AEs), frequency vs placebo” value ([4]; early AD, 21–23 days) was “did not differ in frequency between the groups” and the vital signs ([4]; early AD, 21–23 days) was “no significant changes”. For the same molecule, the “safety and tolerability, multiple dose studies” value ([5]; 20, 40 or 60 mg given four times per day) was “safe and well-tolerated”, the gastro-intestinal side effects ([5]; Single Ascending Dose study, daily dose of 160 mg or higher) was “high rate of gastro-intestinal side effects” and the plasma half-life ([5]; oral, up to four times per day) was “short”.
